Activity calls are given as the source filed them. How the calls were made is not given here.

The test system of this data set is CCRIS mutagenicity, Ames/micronucleus/aberration tests. Description: CCRIS mutagenicity studies.
The mark [1] stands for this setting: Test System: AMES SALMONELLA TYPHIMURIUM, Strain/Indicator: TA98, Metabolic Activation: NONE, Method: STANDARD PLATE.
Where [2] appears, read: Test System: AMES SALMONELLA TYPHIMURIUM, Strain/Indicator: TA100, Metabolic Activation: NONE, Method: STANDARD PLATE.
Setting [3] is: Test System: AMES SALMONELLA TYPHIMURIUM, Strain/Indicator: TA98, Metabolic Activation: NONE, Method: PREINCUBATION

On to `c1ccc2c(c1)c1cccc3ccc4cccc2c4c31`, for which the mutagenic call is, setting by setting: (End Point: IN VITRO MICRONUCLEUS, Test System: CHINESE HAMSTER V79 CELLS, Metabolic Activation: S-9) “active; positive”; (Test System: AMES SALMONELLA TYPHIMURIUM, Strain/Indicator: TA97, Metabolic Activation: NONE, Method: STANDARD PLATE) “inactive; negative”; (Test System: AMES SALMONELLA TYPHIMURIUM, Strain/Indicator: TA97, Metabolic Activation: RAT, LIVER, S-9, PCB, Method: STANDARD PLATE) “active; positive”; under setting [1], “inactive; negative”; (Test System: AMES SALMONELLA TYPHIMURIUM, Strain/Indicator: TA98, Metabolic Activation: RAT, LIVER, S-9, AROCLOR 1254, Method: STANDARD PLATE) “active; positive”; (Test System: AMES SALMONELLA TYPHIMURIUM, Strain/Indicator: TA98, Metabolic Activation: RAT, LIVER, S-9, PCB, Method: STANDARD PLATE) “active; positive”. Further, the mutagenic call was “inactive; negative” (Test System: AMES SALMONELLA TYPHIMURIUM, Strain/Indicator: TA100, Metabolic Activation: MOUSE, LIVER, MICROSOMES, BENZO[E]PYRENE AND TCDD, Method: STANDARD PLATE); “inactive; negative” under setting [2]; “active; positive” (Test System: AMES SALMONELLA TYPHIMURIUM, Strain/Indicator: TA100, Metabolic Activation: RAT, LIVER, S-9, AROCLOR 1254, Method: STANDARD PLATE); “active; positive” (Test System: AMES SALMONELLA TYPHIMURIUM, Strain/Indicator: TA100, Metabolic Activation: RAT, LIVER, S-9, PCB, Method: STANDARD PLATE); “inactive; negative” (Test System: E. COLI, Strain/Indicator: WP2 UVRA, Metabolic Activation: HAMSTER, LIVER, S-9, AROCLOR 1254, Method: STANDARD PLATE); “inactive; negative” (Test System: E. COLI, Strain/Indicator: WP2 UVRA, Metabolic Activation: HAMSTER, LIVER, S-9, Method: STANDARD PLATE). Moreover, the mutagenic call (Test System: E. COLI, Strain/Indicator: WP2 UVRA, Metabolic Activation: MOUSE, LIVER, S-9, AROCLOR 1254, Method: STANDARD PLATE) is “inactive; negative”; the mutagenic call (Test System: E. COLI, Strain/Indicator: WP2 UVRA, Metabolic Activation: MOUSE, LIVER, S-9, Method: STANDARD PLATE) is “inactive; negative”; the mutagenic call (Test System: E. COLI, Strain/Indicator: WP2 UVRA, Metabolic Activation: NONE, Method: STANDARD PLATE) was “inactive; negative”; the mutagenic call (Test System: E. COLI, Strain/Indicator: WP2 UVRA, Metabolic Activation: RAT, LIVER, S-9, AROCLOR 1254, Method: STANDARD PLATE) is “inactive; negative”; the mutagenic call (Test System: E. COLI, Strain/Indicator: WP2 UVRA, Metabolic Activation: RAT, LIVER, S-9, Method: STANDARD PLATE) was “inactive; negative”; the mutagenic call (Test System: MOUSE LYMPHOMA, Strain/Indicator: L5178Y (TK+/TK-), Metabolic Activation: NONE, Method: SUSPENSION/PLATE) is “inactive; negative”. In addition, the mutagenic call runs as follows: (Test System: MOUSE LYMPHOMA, Strain/Indicator: L5178Y (TK+/TK-), Metabolic Activation: RAT, LIVER, S-9, AROCLOR 1254, Method: SUSPENSION/PLATE) “active; positive”; (Test System: MOUSE LYMPHOMA, Strain/Indicator: L5178Y (TK+/TK-), Metabolic Activation: RAT, LIVER, S-9, Method: SUSPENSION/PLATE) “inactive; negative”; (Test System: UDS HUMAN CELLS, Strain/Indicator: THY INCORP (NON-S-PHASE), Metabolic Activation: RAT, LIVER, S-9, 3-METHYLCHOLANTHRENE, Method: LIQUID SCINTILLATION COUNTING) “active; positive”.

In the case of `O=C(O)c1ccco1`, the mutagenic call under setting [1] was “inactive; negative” and the mutagenic call under setting [2] was “inactive; negative”.

Turning to `O=[N+]([O-])c1ccc2ccc3c([N+](=O)[O-])c4ccccc4c4ccc1c2c34`, the mutagenic call by setting is: (Test System: AMES SALMONELLA TYPHIMURIUM, Strain/Indicator: TA98(1,8-DNP6), Metabolic Activation: NONE) “active; positive”; (Test System: AMES SALMONELLA TYPHIMURIUM, Strain/Indicator: TA98(NR), Metabolic Activation: NONE) “active; positive”; (Test System: AMES SALMONELLA TYPHIMURIUM, Strain/Indicator: TA98(NR), Metabolic Activation: NONE, Method: PREINCUBATION) “active; positive”; (Test System: AMES SALMONELLA TYPHIMURIUM, Strain/Indicator: TA98, Metabolic Activation: NONE) “active; positive”; under setting [3], “active; positive”; under setting [1], “active; positive”. Further, the mutagenic call under setting [2] is “active; positive”.

Turning to `C=CCN1C2c3ccccc3-c3ccccc3C21` (stereo unspecified), the mutagenic call under setting [2] was “active; positive” and the mutagenic call (Test System: CHINESE HAMSTER V-79, Strain/Indicator: V-79/6-THIOGUANINE, Metabolic Activation: NONE, Method: STANDARD PLATE) is “active; positive”.

`Oc1ccc2c(O)cccc2c1`: the mutagenic call reads like this: (Test System: AMES SALMONELLA TYPHIMURIUM, Strain/Indicator: TA102, Metabolic Activation: NONE, Method: PREINCUBATION) “active; positive”; (Test System: AMES SALMONELLA TYPHIMURIUM, Strain/Indicator: TA2637, Metabolic Activation: RAT, LIVER, S-9, PHENOBARBITAL AND 5,6-BENZOFLAVONE, Method: PREINCUBATION) “active; positive”.

For the compound `CCc1c2ccccc2cc2c1c1c(c3ccccc32)N1`, the mutagenic call under setting [3] was “active; positive”.

As to `COC(=O)C1=CCCN(N=O)C1`, the mutagenic call by setting is: under setting [1], “active; positive”; (Test System: AMES SALMONELLA TYPHIMURIUM, Strain/Indicator: TA98, Metabolic Activation: RAT, LIVER, S-9, Method: STANDARD PLATE) “active; positive”; under setting [2], “active; positive”; (Test System: AMES SALMONELLA TYPHIMURIUM, Strain/Indicator: TA100, Metabolic Activation: RAT, LIVER, S-9, Method: STANDARD PLATE) “active; positive”.

In the case of `O[C@@H]1C=Cc2c(cc3ccc4cccc5ccc2c3c45)[C@H]1O`, the mutagenic call (Test System: CHINESE HAMSTER V-79, Strain/Indicator: V-79/OUABAIN, Metabolic Activation: HAMSTER, EMBRYO, CELL-MEDIATED, Method: STANDARD PLATE) was “active; positive”.

`Cc1cc2ccccc2c2ccc3c(c12)[C@H](O)[C@@H](O)[C@H]1O[C@@H]31`: the mutagenic call (Test System: AMES SALMONELLA TYPHIMURIUM, Strain/Indicator: TA100, Metabolic Activation: NONE, Method: PREINCUBATION) was “inactive; negative”.

The values are drawn from PubChem BioAssay AID1259407 (Chemical Carcinogenesis Research Information System (CCRIS), 2018).
